Experimental data taken from patent publication US9273017B2, “(Thio)morpholine derivatives as S1P modulators” (ABBVIE BAHAMAS LIMITED, priority 2009, dated 2016).
Counter-ions that a name gives are not always drawn.

How the values were obtained:
[1] = target: T1, human S1P5 receptor (Homo sapiens, UniProt Q9H228); assay: In vitro functional activity (agonism), CHO-human-S1P5-Aequorin assay; type: cell-based; conditions: read-out: S1P5 pEC50 (converted)
T1 construct: host or cells: CHO (AequoScreen recombinant cell line, co-expressing mitochondrially targeted apo-aequorin)
T1 sequence (Q9H228 whole entry): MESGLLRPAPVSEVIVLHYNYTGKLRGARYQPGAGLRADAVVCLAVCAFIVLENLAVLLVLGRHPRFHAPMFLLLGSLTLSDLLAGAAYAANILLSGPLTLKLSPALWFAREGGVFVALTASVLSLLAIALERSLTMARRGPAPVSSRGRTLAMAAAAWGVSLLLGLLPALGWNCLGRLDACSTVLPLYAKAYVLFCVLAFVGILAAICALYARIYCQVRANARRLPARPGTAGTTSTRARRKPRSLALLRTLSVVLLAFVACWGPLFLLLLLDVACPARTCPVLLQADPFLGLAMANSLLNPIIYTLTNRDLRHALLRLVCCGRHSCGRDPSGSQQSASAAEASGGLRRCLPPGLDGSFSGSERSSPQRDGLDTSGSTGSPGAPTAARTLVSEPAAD
Source text: In Vitro Functional Activity (Agonism) on Human S1P5 Receptors
The CHO-human-S1P5-Aeqorin assay was bought from Euroscreen, Brussels (Euroscreen, Technical dossier, Human Lysophospholid S1P5 (Edg8) receptor, DNA clone and CHO AequoScreen™ recombinant cell-line, catalog no: ES-593-A, September 2006). Human-S1P5-Aequorin cells express mitochondrial targeted apo-Aequorin. Cells have to be loaded with coelanterazine, in order to reconstitute active Aequorin. After binding of agonists to the human S1P5 receptor the intracellular calcium concentration increases and binding of calcium to the apo-Aequorin/coelenterazine complex leads to an oxidation reaction of coelenterazine, which results in the production of apo-Aequorin, coelenteramide, CO2 and light (λmax 469 nm). This luminescent response is dependent on the agonist concentration. Luminescence is measured using the MicroBeta Jet (Perkin Elmer). Agonistic effects of compounds are expressed as pEC50. Compounds were tested at a 10 points half log concentration range, and 3 independent experiments were performed in single point's measurements.

Structure (SMILES) | melting point [°C] | EC50 [1] [nM]
CCCc1cc(Cl)c(COc2ccc(C3CN(CCC(=O)O)CCO3)cc2)c(Cl)c1.Cl (stereo not drawn) | 101 to 103 | 
CC(C)c1cc(Cl)c(COc2ccc(C3CN(CCC(=O)O)CCO3)cc2)c(Cl)c1.Cl (stereo not drawn) | 108 to 110 | 
CC#Cc1cc(Cl)c(COc2ccc(C3CN(CCC(=O)O)CCO3)cc2)c(Cl)c1.Cl (stereo not drawn) | 220 to 224 | 
Cl.O=C(O)CCN1CCOC(c2cccc(OCc3c(Cl)cccc3Cl)c2)C1 (stereo not drawn) | 229 to 230 | 
Cl.O=C(O)CCN1CCSC(c2ccc(OCc3ccccc3Cl)cc2)C1 (stereo not drawn) | 178 to 182 | 
COc1cc(C2CN(CCC(=O)O)CCO2)ccc1OCc1c(F)cccc1Cl.Cl (stereo not drawn) | 169 to 171 | 
COc1cc(C2CN(CCC(=O)O)CCO2)ccc1OCc1c(Cl)cccc1Cl.Cl (stereo not drawn) | 214 to 216 | 
Cc1ccc(COc2ccc(C3CN(CCC(=O)O)CCO3)cc2)c(Cl)c1 (stereo not drawn) [Compound 196, 3-{2-[4-(2-Chloro-4-methyl-benzyloxy)-phenyl]-morpholin-4-yl}-propionic acid hydrochloride] |  | 1000
CCCCCCCCSc1ccc(C2CN(CCC(=O)O)CCO2)cc1 (stereo not drawn) [Compound 204, 3-[2-(4-Octylsulfanyl-phenyl)-morpholin-4-yl]-propionic acid Hydrochloride] |  | 398
O=C(O)CCN1CCOC(c2ccc(OC3CCc4ccccc43)cc2)C1 (stereo not drawn) [Compound 219, 3-{2-[4-(Indan-1-yloxy)-phenyl]-morpholin-4-yl}propionic acid] | 124 to 129.5 | 
O=C(O)CCN1CCOC(c2ccc(OC3COc4ccccc43)cc2)C1 (stereo not drawn) [Compound 221, 3-{2-[4-(2,3-Dihydro-benzofuran-3-yloxy)-phenyl]-morpholin-4-yl}-propionic acid] | 141.5 to 144.5 | 

Now from value to compound:

melting point [°C] | EC50 [1] [nM] | Structure (SMILES)
199 to 201 |  | Cl.O=C(O)CCN1CCOC(c2ccc(OCc3ccccc3C(F)(F)F)c(Cl)c2)C1 (stereo not drawn)
189 to 190 |  | Cl.O=C(O)CCN1CCOC(c2ccc(OCc3c(F)cccc3Cl)cc2F)C1 (stereo not drawn)
201 to 201.5 |  | Cl.O=C(O)CCN1CCOC(c2ccc(OCc3ccccc3C(F)(F)F)cc2F)C1 (stereo not drawn)
195 to 197 |  | Cl.O=C(O)CCN1CCOC(c2ccc(OCc3c(Cl)cccc3Cl)cc2C(F)(F)F)C1 (stereo not drawn)
209 to 211 |  | Cl.O=C(O)CCN1CCOC(c2ccc(OCc3cccc(C(F)(F)F)c3)cc2C(F)(F)F)C1 (stereo not drawn)
214 to 215 |  | CCc1cccc(Cl)c1COc1ccc(C2CN(CCC(=O)O)CCO2)c(C(F)(F)F)c1.Cl (stereo not drawn)
179 to 182 |  | Cl.O=C(O)CCN1CCOC(c2ccc(OCc3c(Cl)cccc3OC(F)(F)F)cc2C(F)(F)F)C1 (stereo not drawn)
206 to 210 |  | CC(C)c1cccc(Cl)c1COc1ccc(C2CN(CCC(=O)O)CCO2)c(C(F)(F)F)c1.Cl (stereo not drawn)
171.5 to 172.5 |  | Cl.O=C(O)CCN1CCOC(c2ccc(OCc3c(F)cccc3Cl)cc2C(F)(F)F)C1 (stereo not drawn)
200 to 201 |  | Cl.O=C(O)CCN1CCOC(c2ccc(OCc3c(Cl)cccc3C(F)(F)F)cc2C(F)(F)F)C1 (stereo not drawn)
203 to 204 |  | Cl.O=C(O)CCN1CCOC(c2ccc(OCc3c(Cl)cccc3C3CC3)cc2C(F)(F)F)C1 (stereo not drawn)
222 to 225 |  | Cl.O=C(O)CCN1CCOC(c2cccc(OCc3ccccc3)c2)C1 (stereo not drawn)
233 to 234 |  | Cl.O=C(O)CCN1CCOC(c2cccc(OCc3ccccc3Cl)c2)C1 (stereo not drawn)
